One block for each molecule: values may come before it.
Columns and labels:
[1] = tested on: TOPFLASH promoter activity in rat primary HSCs; assay: TOPFLASH TCF promoter-luciferase reporter, transient transfection by electroporation; assay type: cell-based; settings: day 7 primary HSCs
Method: TCF promoter-luciferase construct TOPFLASH (a gift from Dr. Randall Moon, Univ. of Washington, Seattle, Wash.) or a KB luciferase construct was used for transient transfection in the rat primary HSCs by electroporation using the NeonTM Transfection System (Invitrogen). The Renilla pRL-TK construct was used for standardization for transfection efficiency. Cell lysates were analyzed by the dual luciferase assay (Promega) on a luminometer. To assess the activity of IKK, IKK was immunoprecipitated by IKKα antibody and protein G-Sepharose, and the assay was performed at 30° C. for 1 hr in buffer containing 20 mM Tris HCl, pH 7.5, 20 mM MgCl2, 2 mM dithiothreitol, 20 μM ATP, 2 μg GST-IκBα, and [γ-32P]ATP. The reaction was stopped by addition of […] buffer and was resolved by 10% SDS-PAGE followed by a transfer onto a membrane for imaging.

[2] = tested on: culture-activated rat primary HSCs; assay: Morphologic reversal of culture-activated HSCs (phase contrast / UV autofluorescence microscopy); assay type: cell-based; settings: concentration of 135 and 270 μM
Method: The purity of the cells, as determined by phase contrast microscopy and ultraviolet-excited fluorescence microscopy, exceeded 96%, and the viability as determined by trypan blue exclusion exceeded 94%. In vitro activation of HSCs was achieved by culturing rat HSCs in Dulbecco's modified Eagle's medium (DMEM) with 1.0 g/liter glucose, 10% fetal bovine serum and 1% antibiotics on plastic dish for 3, 5 or 7 days. Culture-activated rat primary HSCs were treated with the YGW or starch (control) aqueous extract at 25% (v/v). To obtain the extract, the YGW or starch powder (provided by S.P. Pharmaceutics Inc.) was suspended in DMEM at the concentration of 35 mg/ml, mixed thoroughly with a vortex for 5 min, and centrifuged at ×150 g for 30 min to collect the supernatant. This supernatant was designated as 100% extract and used after filter-sterilization. RA and BC (Sigma Chemical Co) were dissolved in DMSO and tested at the concentration of 67.5˜270 μM.

[3] = tested on: rat HSCs; assay: Immunoblot analysis of cultured HSCs; assay type: cell-based; settings: day 7 HSCs, RA or BC
Method: Whole cell extracts were prepared as previously described in Hazra S. et al., Peroxisome proliferator-activated receptor gamma induces a phenotypic switch from activated to quiescent hepatic stellate cells, J Biol Chem, 2004 Mar 19; 279 (12):11392-11401, which is incorporated by reference herein as though fully set forth. Equal amounts of the extract (20 μg) were separated by 8-15% SDS-PAGE and the proteins were transferred to nitrocellulose membranes (Bio-Rad, Hercules, Calif.). MeCP2, type I collagen, and β-actin were detected by incubating with rabbit polyclonal anti-MeCP2 (1:1000) (Abcam), antitype I collagen (1:4000), and anti-β-actin (1:5000) primary antibodies (Santa Cruz Biotechnology) in TBS (100 mM Tris-HCl, 1.5 M NaCl, pH 7.4) with 5% nonfat milk overnightat 4° C. followed by incubation with horseradish peroxidase conjugated goat anti-rabbit secondary antibodies (1:4000) (Sigma) at room temperature for 2 hr. The antigen-antibody complexes' chemiluminescence was detected by using the ECL detection kit (Pierce).

[4] = tested on: culture-activated rat primary HSCs; assay: Real time quantitative PCR of cultured HSCs; assay type: cell-based; settings: for expression of Necdin / expression of Wnt3a / expression of Wnt10b: 270 μM, day 7 HSCs vs vehicle; for EZH2 expression: day 7 HSCs, RA or BC
Source text: HSCs were isolated from normal male Wistar rats, C57B1/6 and Coll-GFP mice by in situ digestion of the liver and arabinogalactan gradient ultracentrifugation by the Non-Parenchymal Liver Cell Core of the Southern California Research Center for ALPD and Cirrhosis as described previously in Cheng J H et al,. Wnt antagonism inhibits hepatic stellate cell activation and liver fibrosis, Am J Physiol Gastrointest Liver Physiol, 2007 Nov 15; and Zhu N L et al., The […] pathway causes epigenetic peroxisome proliferator-activated receptor gamma repression in hepatic stellate cells, J Biol Chem, 2010 Oct 1; 285(40):30463-30471, both of which are incorporated by reference herein in their entirety as though fully set forth. The purity of the cells, as determined by phase contrast microscopy and ultraviolet-excited fluorescence microscopy, exceeded 96%, and the viability as determined by trypan blue exclusion exceeded 94%. In vitro activation of HSCs was achieved by culturing rat HSCs in Dulbecco's modified Eagle's medium (DMEM) with 1.0 g/liter glucose, 10% fetal bovine serum and 1% antibiotics on plastic dish for 3, 5 or 7 days. Culture-activated rat primary HSCs were treated with the YGW or starch (control) aqueous extract at 25% (v/v). To obtain the extract, the YGW or starch powder (provided by S.P. Pharmaceutics Inc.) was suspended in DMEM at the concentration of 35 mg/ml, mixed thoroughly with a vortex for 5 min, and centrifuged at ×150 g for 30 min to collect the supernatant. This supernatant was designated as 100% extract and used after filter-sterilization. RA and BC (Sigma Chemical Co) were dissolved in DMSO and tested at the concentration of […]. Total RNA was extracted from the cells using TRIzol reagent (Invitrogen) or RNeasy Mini kit (Qiagen). One microgram of RNA was reverse transcribed to cDNA by using SuperScript III First-Strand Synthesis System (Invitrogen) and amplified by 40 cycles using primers listed below and the SYBR Green PCR Master mix reagent (AB Applied Biosystem). Each threshold cycle (Ct) value was first normalized to the 36B4 Ct value of a sample and subsequently compared between the treatment and control samples.

[5] = tested on: Pparγ gene; assay: Chromatin immunoprecipitation (ChIP) at the Pparγ gene in HSCs; assay type: cell-based, rat; settings: day 7 HSCs, RA or BC
Method: For assessing Pparγ epigenetic regulation, carrier ChIP was performed using Raji cells as the source of carrier chromatin. For native ChIP, 20 μg of HSC chromatin was mixed with 80 μg of Raji cell chromatin. For cross-link ChIP, Raji cells (1.4×10^7 cells) were mixed to HSCs (0.2×10^6 cells) and fixed with 1% formaldehyde on the rotating platform for 5-10 minutes at room temperature followed by addition of glycine to a final concentration of 0.125M. After lysis of the cells with SDS buffer (1% SDS, 10 mM EDTA, 50 mM Tris-HCl pH8.1) with protease inhibitors, the lysates were sonicated and snap frozen in aliquots. For chromatin IP, diluted samples were first pre-cleared using protein G-agarose beads and then incubated with antibody against […], MeCP2, H3K27me2, H3K4me2 and […] (Abcam) at 1 μg/μl at 4° C. for overnight followed by precipitation with protein G agarose beads. After elution of immunoprecipitated complex, crosslinking was reversed with 5N NaCl and proteins digested with protease K. Extracted chromatin was subjected to real-time PCR using the primers flanking a segment within Pparγ promoter or exon as previously described in Mann J et al., MeCP2 controls an epigenetic pathway that promotes myofibroblast transdifferentiation and fibrosis, Gastroenterology, 2010 Feb; 138(2):705-14, 714, which is incorporated herein by reference as though fully set forth. Ct values of the samples with non-immune IgG were subtracted and compared to their respective input Ct values.

[6] = tested on: BDL-induced cholestatic liver fibrosis in mice; assay: Bile duct ligation (BDL) cholestatic liver fibrosis model; assay type: in vivo
Method: Male C57B1/6 and collagen α1(I) promoter-GFP (Coll-GFP) mice were subjected to ligation and scission of the common bile duct (BDL) to induce cholestatic liver fibrosis for HSC isolation or testing the therapeutic efficacy of RA. For the latter, after one week following BDL, RA was intraperitoneally injected daily at the dose of 0.1 mg/25 g body weight until the animals were sacrificed one week later for Sirius-red staining morphometry, immunohistochemistry, and qPCR analysis of the livers as described below.
After 3 days of the extract treatment, the cells were washed with cold phosphate-buffered saline (PBS) and fixed in 4% paraformaldehyde (PF). To stain α-smooth muscle actin (SMA), a fluorescein isothiocyanate (FITC) conjugated antibody (1:200, Sigma, Saint Louis, Mo.) was added as a primary antibody at 4° C. for overnight. After washing and blocking with 5% nonfat milk, fluorescence images were viewed by a Nikon microscope as described above. For intracellular lipid staining, HSCs treated with the extract for 3 days were cultured with retinol (5 μM) and palmitic acid (100 μM) (Sigma, Saint Louis, Mo.) for 48 hr, and fixed with 10% formalin in PBS. Oil Red O (0.5% w/v in isopropanol) was diluted with 67% volume of water, filtered, and added to the fixed HSCs. Apoptosis was detected in cultured HSCs and liver sections from BDL mice using a Cell Death Detection kit from Roche. For liver section immunostaining, liver tissues were fixed with 4% PF and embedded in freezing medium. Cryosections (7 μm) were washed with PBS, digested with 20 μg/ml proteinase K (Invitrogen, Carlsbad, Calif.), and blocked with 5% goat serum and 0.2% bovine serum albumin. The sections were then incubated with mouse anti-SMA antibody conjugated with FITC (Sigma, 1:400) and rabbit anti-desmin antibody (Thermo Scientific, Rockford, Ill., 1:400). After washing, the sections were incubated with goat anti-rabbit antibody conjugated with AlexaFluor 568 (Invitrogen, 1:400) and mouse anti-FITC antibody conjugated with DyLight 488 (Jackson ImmunoResearch, West Grove, Pa., 1:400). The sections were mounted with 4,6-diamidino-2-phenylindole (DAPI) (Invitrogen) and fluorescence images were visualized under a microscope. To quantify the percentage and density of HSCs in the liver after BDL with or without treatment of RA, 6 images were randomly captured using a 10× objective lens in 3 different sections and SMA+ and desmin+HSCs in the parenchyma were counted.
Total RNA was extracted from the cells using TRIzol reagent (Invitrogen) or RNeasy Mini kit (Qiagen). One microgram of RNA was reverse transcribed to cDNA by using SuperScript III First-Strand Synthesis System (Invitrogen) and amplified by 40 cycles using primers listed below and the SYBR Green PCR Master mix reagent (AB Applied Biosystem). Each threshold cycle (Ct) value was first normalized to the 36B4 Ct value of a sample and subsequently compared between the treatment and control samples.

[7] = RA ip daily 0.1 mg/25 g, immunohistochemistry SMA/Desmin, vs vehicle
[8] = RA ip daily 0.1 mg/25 g, vs vehicle

TOPFLASH activity [1]: suppress
SMILES: O=C(O)[C@H]1O[C@@H](Oc2cc3oc(-c4ccccc4)cc(=O)c3c(O)c2O)[C@H](O)[C@@H](O)[C@@H]1O [BC, baicalin]
morphologic reversal of activated HSCs with increased UV-excited autofluorescence [2]: morphologically reverse activated HSCs to quiescent cells | MeCP2 protein level [3]: reduce | expression of Necdin [4]: reduced | expression of Wnt3a [4]: suppress | expression of Wnt10b [4]: suppress | EZH2 expression [4]: reduce | H3K27me2 at the Pparγ exon [5]: reduce | MeCP2 enrichment in the Pparγ promoter [5]: reduce

SMILES: O=C(/C=C/c1ccc(O)c(O)c1)O[C@H](Cc1ccc(O)c(O)c1)C(=O)O [RA, rosmarinic acid]
TOPFLASH activity [1]: suppress | morphologic reversal of activated HSCs with increased UV-excited autofluorescence [2]: morphologically reverse activated HSCs to quiescent cells | TUNEL+HSCs or hepatocytes in the liver parenchyma ([6]; RA ip daily 0.1 mg/25 g): No TUNEL+HSCs or hepatocytes are detected | density of Desmin+HSCs (increased by BDL) ([6]; RA ip daily 0.1 mg/25 g): no effect | liver to body weight percentage ([6]; RA ip daily 0.1 mg/25 g body weight during second week of BDL): 6.8 ± 0.7 | plasma ALT levels ([6]; RA ip daily 0.1 mg/25 g body weight during second week, p=0.29 vs vehicle): 157+71 | liver fibrosis by digital morphometric analysis of Sirius red-stained collagen fibers ([6]; RA ip daily 0.1 mg/25 g body weight during second week, vs vehicle): significant attenuation | reduction of the percentage of SMA+HSCs [6, 7]: 75% | reduction of the percentage of SMA+MFs [6, 7]: 40% | hepatic mRNA level of SMA [6, 8]: significantly reduced | hepatic mRNA level of α1(I) procollagen [6, 8]: significantly reduced | MeCP2 protein level [3]: reduce | expression of Necdin [4]: reduced | expression of Wnt3a [4]: suppress | expression of Wnt10b [4]: suppress | EZH2 expression [4]: reduce | H3K27me2 at the Pparγ exon [5]: reduce | MeCP2 enrichment in the Pparγ promoter [5]: reduce

Source: patent publication US20160106770A1, “EPIGENETIC MECHANISMS OF ANTI-FIBROTIC ACTION FOR THE LIVER” (University of Southern California, priority 2011, published 2016)
